These results are taken from patent US8637525B2, “Compounds for the reduction of beta-amyloid production” (Bristol-Myers Squibb Company, priority 2009, dated 2014).

Each structure is given as a SMILES string. Where a name gives a salt, the structure may show the parent alone. A value given as a limit tells only on which side of the number the result lay.

As usually defined, the IC50 is the midpoint of a concentration-inhibition curve.

One test relates to Aβ1-42 production. Kind of test: Cellular assay for inhibition of Aβ1-42 production (H4 APP751 SWE clone 8.20). Format: cell-based. Particulars: 19 h, H4 APP751 SWE clone 8.20 cells, 19 h incubation; class symbols; read-out: Activity Rating (Aβ42 cellular IC50). Put shortly:
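Aβ42 read by time-resolved FRET using neoepitope antibody 565 (0.8 ng/well) paired with N-terminal 26D6 (75 ng/well), incubated overnight at 4 °C, then IC50 curve fitting. Cells: H4 APP751 Swedish clone 8.20, exposed to compound for 19 h at 37 °C.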
Regarding `CCNc1nc(Nc2ccc(-n3ncnc3C)c(F)c2)nc2c1COC2c1ccc(F)cc1` (centres unmarked) [Example 78, N^4-ethyl-N^2-(3-fluoro-4-(5-methyl-1H-1,2,4-triazol-1-yl)phenyl)-7-(4-fluorophenyl)-5,7-dihydrofuro[3,4-d]pyrimidine-2,4-diamine], the IC50 fell in the range of 0.01 to 0.1 µM.

For `CNc1nc(Nc2ccc(-n3cnc(Cl)c3)c(OC)c2)nc2c1C(O)CC2c1ccccc1` (centres unmarked) [Example 202, 2-(4-(4-chloro-1H-imidazol-1-yl)-3-methoxyphenylamino)-4-(methylamino)-7-phenyl-6,7-dihydro-5H-cyclopenta[d]pyrimidin-5-ol], the IC50 fell in the range of 0.0015 to 0.0099 µM.

Turning to `[2H]C([2H])([2H])Nc1nc(Nc2ccc(-n3cnc(Cl)c3)c(OC)c2)nc2c1CCC2c1ccc(F)cc1` (centres unmarked) [Example 47, N^2-(4-(4-Chloro-1H-imidazol-1-yl)-3-methoxyphenyl)-7-(4-fluorophenyl)-N^4-trideuteromethyl-6,7-dihydro-5H-cyclopenta[d]pyrimidine-2,4-diamine], the IC50 lay in the range of 0.0015 to 0.0099 µM.

Consider `CNc1nc(Nc2cccc(C#N)c2)nc2c1CCC2c1ccccc1` (centres unmarked) [Example 233, 3-(4-(methylamino)-7-phenyl-6,7-dihydro-5H-cyclopenta[d]pyrimidin-2-ylamino)benzonitrile], for which the IC50 is above 1 µM.

As to `CCOCCCNc1nc(Nc2ccc(-n3cnc(Cl)c3)c(OC)c2)nc2c1CCC2c1ccc(F)cc1` (centres unmarked) [Example 42, N2-(4-(4-chloro-1H-imidazol-1-yl)-3-methoxyphenyl)-N4-(3-ethoxypropyl)-7-(4-fluorophenyl)-6,7-dihydro-5H-cyclopenta[d]pyrimidine-2,4-diamine], the IC50 was in the range of 0.01 to 0.1 µM.

As for `CNC1CCN(c2nc(Nc3ccc(-n4cnc(Cl)c4)c(OC)c3)nc3c2CCC3c2ccc(F)cc2)C1` (centres unmarked) [Example 32, N-(4-(4-chloro-1H-imidazol-1-yl)-3-methoxyphenyl)-7-(4-fluorophenyl)-4-(3-(methylamino)pyrrolidin-1-yl)-6,7-dihydro-5H-cyclopenta[d]pyrimidin-2-amine], the IC50 fell in the range of 0.01 to 0.1 µM.

Consider `CNc1nc(Nc2ccc(-n3ncnc3C)c(F)c2)nc2c1CCC2c1cc(F)c(F)c(F)c1` (centres unmarked) [Example 104, N^2-(3-fluoro-4-(5-methyl-1H-1,2,4-triazol-1-yl)phenyl)-N^4-methyl-7-(3,4,5-trifluorophenyl)-6,7-dihydro-5H-cyclopenta[d]pyrimidine-2,4-diamine], for which the half-maximal inhibitory concentration (IC50) fell in the range of 0.01 to 0.1 µM.

With `COc1cc(Nc2nc3c(c(N4CC(F)(F)C4)n2)CNCC3c2ccc(F)cc2)ccc1-n1cnc(Cl)c1` (centres unmarked) [Example 162, N-(4-(4-chloro-1H-imidazol-1-yl)-3-methoxyphenyl)-4-(3,3-difluoroazetidin-1-yl)-8-(4-fluorophenyl)-5,6,7,8-tetrahydropyrido[4,3-d]pyrimidin-2-amine], the IC50 fell in the range of 0.01 to 0.1 µM.

As for `CNc1nc(Nc2ccc(-n3cnc(Cl)c3)c(OC)c2)nc2c1COCC2c1ccccc1` (single isomer, unassigned) [Example 51A, N^2-(4-(4-chloro-1H-imidazol-1-yl)-3-methoxyphenyl)-N^4-methyl-8-phenyl-7,8-dihydro-5H-pyrano[4,3-d]pyrimidine-2,4-diamine], the IC50 fell in the range of 0.0015 to 0.0099 µM.

Regarding `COc1cc(Nc2nc3c(c(N4CCC(F)C4)n2)CCOC3c2ccc(F)cc2)ccc1-n1cnc(Cl)c1` (stereo in doubt) [Example 90A, N-(4-(4-chloro-1H-imidazol-1-yl)-3-methoxyphenyl)-8-(4-fluorophenyl)-4-((R)-3-fluoropyrrolidin-1-yl)-6,8-dihydro-5H-pyrano[3,4-d]pyrimidin-2-amine], the IC50 is 0.01 to 0.1 µM.

Turning to `COc1cc(Nc2nc3c(c(N4CC(F)(F)C4)n2)CCC3c2ccc(OC(F)(F)F)cc2)ccc1-n1cnc(Cl)c1` (single isomer, unassigned) [Example 99A, N-(4-(4-chloro-1H-imidazol-1-yl)-3-methoxyphenyl)-4-(3,3-difluoroazetidin-1-yl)-7-(4-(trifluoromethoxy)phenyl)-6,7-dihydro-5H-cyclopenta[d]pyrimidin-2-amine], the IC50 was in the range of 0.01 to 0.1 µM.

As to `COc1cc(Nc2nc3c(c(N4CC(C)(OC)C4)n2)CCC3c2ccc(F)cc2)ccc1-n1cnc(Cl)c1` (centres unmarked) [Example 191, N-(4-(4-chloro-1H-imidazol-1-yl)-3-methoxyphenyl)-7-(4-fluorophenyl)-4-(3-methoxy-3-methylazetidin-1-yl)-6,7-dihydro-5H-cyclopenta[d]pyrimidin-2-amine], the IC50 fell in the range of 0.01 to 0.1 µM.

For the compound `CNc1nc(Nc2ccc(-n3cnc(C)n3)c(OC)c2)nc2c1CC[C@@H]2c1ccccc1OC` [Example 266B, (R)—N2-(3-methoxy-4-(3-methyl-1H-1,2,4-triazol-1-yl)phenyl)-7-(2-methoxyphenyl)-N4-methyl-6,7-dihydro-5H-cyclopenta[d]pyrimidine-2,4-diamine], the IC50 fell in the range of 0.01 to 0.1 µM.

Staying with this test, now noted: 19 h, H4 APP751 SWE clone 8.20 cells, 19 h incubation; read-out: Activity Rating (Aβ42 cellular IC50), numeric value.
`Cc1ccc(C(C)C)cc1Nc1nc(Nc2ccc(C#N)cc2)nc2c1CCC2c1ccccc1` (centres unmarked) [Example 215B, 4-(4-(5-isopropyl-2-methylphenylamino)-7-phenyl-6,7-dihydro-5H-cyclopenta[d]pyrimidin-2-ylamino)benzonitrile]: the IC50 was 0.173 µM.

For `CNc1nc(Nc2ccc(-n3cnc(Cl)c3)c(OC)c2)nc2c1CCC2c1ccc(F)c(F)c1` (single isomer, unassigned) [Example 96B, N^2-(4-(4-chloro-1H-imidazol-1-yl)-3-methoxyphenyl)-7-(3,4-difluorophenyl)-N^4-methyl-6,7-dihydro-5H-cyclopenta[d]pyrimidine-2,4-diamine], the IC50 was 0.0046 µM.

On to `CNc1nc(Nc2ccc(C#N)nc2)nc2c1CCC2c1ccccc1` (centres unmarked) [Example 230, 5-(4-(methylamino)-7-phenyl-6,7-dihydro-5H-cyclopenta[d]pyrimidin-2-ylamino)picolinonitrile], for which the half-maximal inhibitory concentration (IC50) was 0.042 µM.

With `CCC1CCCN1c1nc(Nc2ccc(-n3cnc(Cl)c3)c(OC)c2)nc2c1CCC2c1ccc(F)cc1` (single isomer, unassigned) [Example 24B, N-(4-(4-chloro-1H-imidazol-1-yl)-3-methoxyphenyl)-4-(2-ethylpyrrolidin-1-yl)-7-(4-fluorophenyl)-6,7-dihydro-5H-cyclopenta[d]pyrimidin-2-amine], the IC50 stood at 0.2 µM.

The same test, now with this note: H4 APP751 SWE clone 8.20 cells, 19 h incubation; class symbols; TFA; read-out: Activity Rating (Aβ42 cellular IC50).
As for `COc1cc(Nc2nc(N[C@@H](C)C3CC3)c3c(n2)C(c2ccc(F)cc2)CC3)ccc1-n1cnc(Cl)c1` (mixture of isomers) [Example 50, N2-(4-(4-chloro-1H-imidazol-1-yl)-3-methoxyphenyl)-N4-((S)-1-cyclopropylethyl)-7-(4-fluorophenyl)-6,7-dihydro-5H-cyclopenta[d]pyrimidine-2,4-diamine, TFA], the half-maximal inhibitory concentration (IC50) lay in the range of 0.0015 to 0.0099 µM.

Still in this test, the particulars now being: H4 APP751 SWE clone 8.20 cells, 19 h incubation; class symbols; read-out: Activity Rating (Aβ42 cellular IC50).
Turning to `COc1cc(Nc2nc3c(c(N4CC[C@@H](F)C4)n2)CCC3c2ccc(F)cc2)ccc1-n1cnc(Cl)c1` (stereo partly drawn) [Example 38B, N-(4-(4-chloro-1H-imidazol-1-yl)-3-methoxyphenyl)-7-(4-fluorophenyl)-4-((R)-3-fluoropyrrolidin-1-yl)-6,7-dihydro-5H-cyclopenta[d]pyrimidin-2-amine], the IC50 fell in the range of 0.01 to 0.1 µM.

Turning to `CCNc1nc(Nc2ccc(-n3cnc(Cl)c3)c(OC)c2)nc2c1CN(CC(F)(F)F)CC2c1ccccc1` (centres unmarked) [Example 196], the 50% inhibitory concentration (IC50) lay in the range of 0.01 to 0.1 µM.

Consider `CNc1nc(Nc2ccc(-n3cnc(Cl)c3)c(OC)c2)nc2c1CCC2c1cc(F)c(F)c(F)c1` (single isomer, unassigned) [Example 103A, N^2-(4-(4-chloro-1H-imidazol-1-yl)-3-methoxyphenyl)-N^4-methyl-7-(3,4,5-trifluorophenyl)-6,7-dihydro-5H-cyclopenta[d]pyrimidine-2,4-diamine], for which the IC50 lay within 0.0015 to 0.0099 µM.

For the compound `CCC1CCCN1c1nc(Nc2ccc(-n3cnc(Cl)c3)c(OC)c2)nc2c1CCC2c1ccc(F)cc1` (single isomer, unassigned) [Example 23A, N-(4-(4-chloro-1H-imidazol-1-yl)-3-methoxyphenyl)-4-(2-ethylpyrrolidin-1-yl)-7-(4-fluorophenyl)-6,7-dihydro-5H-cyclopenta[d]pyrimidin-2-amine], the IC50 is 0.01 to 0.1 µM.

For `CNc1nc(Nc2ccc(-n3cnc(Cl)c3)c(OC)c2)nc2c1CN(S(C)(=O)=O)CC2c1ccc(F)cc1` (centres unmarked) [Example 154A, N2-(4-(4-chloro-1H-imidazol-1-yl)-3-methoxyphenyl)-8-(4-fluorophenyl)-N4-methyl-6-(methylsulfonyl)-5,6,7,8-tetrahydropyrido[4,3-d]pyrimidine-2,4-diamine], the IC50 lay in the range of 0.0015 to 0.0099 µM.

With `CCNc1nc(Nc2ccc(-n3cnc(Cl)c3)c(OC)c2)nc2c1COCC2c1ccc(F)cc1` (centres unmarked) [Example 56A, N2-(4-(4-chloro-1H-imidazol-1-yl)-3-methoxyphenyl)-N4-ethyl-8-(4-fluorophenyl)-7,8-dihydro-5H-pyrano[4,3-d]pyrimidine-2,4-diamine], the concentration for half-maximal inhibition (IC50) lay in the range of 0.0015 to 0.0099 µM.

Turning to `COc1cc(Nc2nc3c(c(N4CCC(O)(C(F)(F)F)C4)n2)CCC3c2ccc(F)cc2)ccc1-n1cnc(Cl)c1` (single isomer, unassigned) [Example 28, 1-(2-(4-(4-chloro-1H-imidazol-1-yl)-3-methoxyphenylamino)-7-(4-fluorophenyl)-6,7-dihydro-5H-cyclopenta[d]pyrimidin-4-yl)-3-(trifluoromethyl)pyrrolidin-3-ol], the half-inhibitory concentration (IC50) was 0.01 to 0.1 µM.

The test is the same for the next values; noted with them: H4 APP751 SWE clone 8.20 cells, 19 h incubation; read-out: Activity Rating (Aβ42 cellular IC50), numeric value.
In the case of `COc1cc(Nc2nc3c(c(N(C)C)n2)COCC3c2ccc(Cl)cc2)ccc1-n1cnc(Cl)c1` (single isomer, unassigned) [Example 65B, N^2-(4-(4-chloro-1H-imidazol-1-yl)-3-methoxyphenyl)-8-(4-chlorophenyl)-N^4,N^4-dimethyl-7,8-dihydro-5H-pyrano[4,3-d]pyrimidine-2,4-diamine], the IC50 was found to be 0.16 µM.
